Assay results as given in BindingDB's records for doi:10.1016/j.bmcl.2011.09.019 (Itherx Pharmaceuticals, 2011).

assay: Inhibition of human SRB1-mediated Hepatitis C virus genotype 2a entry into human 293T cells by immunoblotting

In order of rising IC50:
1. COC(=O)c1ccc2c(c1)c1ccccc1n2CCCN1C[C@@H](C)N[C@@H](C)C1  230 nM
2. CCOC(=O)c1ccc2c(c1)c1ccccc1n2CCCN1C[C@@H](C)N[C@@H](C)C1  600 nM
3. CC(C)OC(=O)c1ccc2c(c1)c1ccccc1n2CCCN1C[C@@H](C)N[C@@H](C)C1  630 nM
4. C[C@@H]1CN(CCCn2c3ccccc3c3ccccc32)C[C@H](C)N1 [9-(3-(3,5-dimethylpiperazin-1-yl)propyl)-9H-carbazole]  1200 nM
